{"source": "patent US20110311601A1", "about": "“ANTIMICROBIAL MEDICAL DEVICES” (priority 2010, published 2011)", "experiment_in_all_cases": "micro-dilution assay (MBC, LD90)", "assay_type_in_all_cases": "cell-based", "key": {"[1]": {"tested_on": "Citrobacter freundii UR 1776/03 (wild-type)", "experimental": "(§1) The anti-bacterial activity of hβD2 was tested by a micro-dilution assay. Bacteria and fungi were streaked from a glycerol stock onto a Brain Heart Infusion (BHI) agar plate (3.7% w/v BHI Bouillon, 1.5% w/v Agar), grown overnight at 37° C. and 30° C., respectively and subsequently used to inoculate 40 ml of 3.7% w/v BHI Bouillon without any antibiotics in 100 ml flasks. Fresh cells were harvested by centrifugation at 16000 rpm for 10 min and washed twice with 10 mM sodium phosphate buffer, pH 7.2. The optical density was adjusted to 10^4 cells/ml. For anti-bacterial testing hβD2 was incubated in one well of a microtiter plate containing 100 μl of the bacterial suspension. Therefore, ten microlitres of hβD2 solution with a range of final concentrations tested from 0.0125 up to and including 100 mg/l was added to the bacterial suspension and incubated at 37° C. and 30° C., respectively for 2 h before colony forming units were determined. Colony forming units (CFU) were determined after plating 100 μl of a 1:100 dilution of the bacterial suspension on petri dishes with BHI medium and incubating them overnight at 37° C. For every group of the hβD2 added samples and the controls, 5 independent anti-bacterial assays were performed. A control (NC) of bacterial growth was examined for every independent assay. The number of CFU on the control (consisting of a single petri dish) was set to 0% bactericidal activity. The reduction in the CFU resulting from the anti-bacterial activity of hβD2 was related to the absolute CFU of the control within every independent assay. This value, given as a percentage of the bacterial “killing” activity, was used to describe the antibacterial activity. This kind of normalisation of the antibacterial data was performed for every experimental group.\n(§2) The antibacterial activity of hβD2 were given either as minimum bactericidal concentration (MBC), i.e., the minimum concentration of hβD2 in μg/ml which is required to kill 99.9% of the bacteria or fungi or as lethal dose (LD90), i.e., the concentration of hβD2 in μg/ml which is lethal for 90% of bacteria or fungi."}, "[2]": {"tested_on": "Citrobacter freundii BK 3796/00 (wild-type)", "experimental": "as §1, §2"}, "[3]": {"tested_on": "Staphylococcus aureus (MRSA 344) (wild-type)", "experimental": "as §1, §2"}, "[4]": {"tested_on": "Enterococcus faecium (VRE) W 356 (wild-type)", "experimental": "as §1, §2"}, "[5]": {"tested_on": "Salmonella typhimurium ATCC 13311", "experimental": "as §1, §2"}, "[6]": {"tested_on": "E. coli (ESBL 3) Va 4425/01 (wild-type)", "experimental": "as §1, §2"}, "[7]": {"tested_on": "Pseudomonas aeruginosa CF 453 Va mr (wild-type)", "experimental": "as §1, §2"}, "[8]": {"tested_on": "Enterococcus faecium (VRE) W 354 (wild-type)", "experimental": "as §1, §2"}, "[9]": {"tested_on": "Enterobacter cloacae Va 11263/03 (wild-type)", "experimental": "as §1, §2"}, "[10]": {"tested_on": "Serratia marcescens Mero 041/145 (wild-type)", "experimental": "as §1, §2"}, "[11]": {"tested_on": "Campylobacter jejuni ATCC 33560", "experimental": "as §1, §2"}, "[12]": {"tested_on": "Serratia marcescens Mero 103/013 (wild-type)", "experimental": "as §1, §2"}, "[13]": {"tested_on": "Proteus mirabilis (ESBL 8) (wild-type)", "experimental": "as §1, §2"}, "[14]": {"tested_on": "Acinetobacter johnsonii ATCC 17909", "experimental": "as §1, §2"}, "[15]": {"tested_on": "Serratia marcescens NCTC 10211", "experimental": "as §1, §2"}, "[16]": {"tested_on": "Pseudomonas aeruginosa ATCC 11446", "experimental": "as §1, §2"}, "[17]": {"tested_on": "Pseudomonas fluorescens NCTC 10038", "experimental": "as §1, §2"}, "[18]": {"tested_on": "Proteus mirabilis UR 1792/03 (wild-type)", "experimental": "as §1, §2"}, "[19]": {"tested_on": "Brevundimonas diminuta ATCC 11568", "experimental": "as §1, §2"}, "E. coli ATCC 35218": {"tested_on": "E. coli ATCC 35218", "experimental": "as §1, §2"}, "[20]": {"tested_on": "Citrobacter freundii BK 2122/00 (wild-type)", "experimental": "as §1, §2"}, "[21]": {"tested_on": "Corynebacterium pseudodiphtheriae RV A1/95", "experimental": "as §1, §2"}, "[22]": {"tested_on": "Streptococcus pneumoniae ATCC 33400", "experimental": "as §1, §2"}, "[23]": {"tested_on": "Klebsiella pneumoniae (ESBL) CF 7 (wild-type)", "experimental": "as §1, §2"}, "[24]": {"tested_on": "Candida glabrata UR 5836/02 (wild-type)", "experimental": "as §1, §2"}, "[25]": {"tested_on": "Pseudomonas aeruginosa CF 479 mr (wild-type)", "experimental": "as §1, §2"}}, "note": "Where no end group is shown, it is not given here.", "data": [{"substance": "human β-defensin-2 (GIGDPVTCLKSGAICHPVFCPRRYKQIGTCGLPGTKCCKKP; ends and bridges not checked; cysteine pairing not given here) [hβD2, recombinant hβD2]", "values": [{"measurement": "LD 90 = μg/ml 90% killing", "setting": "[1]", "value": 1.56, "unit": "µg/mL"}, {"measurement": "MBC = μg/ml 99.9% killing", "setting": "[1]", "value": 6.25, "unit": "µg/mL"}, {"measurement": "LD 90 = μg/ml 90% killing", "setting": "[2]", "value": 3.125, "unit": "µg/mL"}, {"measurement": "MBC = μg/ml 99.9% killing", "setting": "[2]", "value": 6.25, "unit": "µg/mL"}, {"measurement": "LD 90 = μg/ml 90% killing", "setting": "[3]", "value": 100, "unit": "µg/mL"}, {"measurement": "MBC = μg/ml 99.9% killing", "setting": "[3]", "value": 100, "unit": "µg/mL"}, {"measurement": "LD 90 = μg/ml 90% killing", "setting": "[4]", "value": 50, "unit": "µg/mL"}, {"measurement": "MBC = μg/ml 99.9% killing", "setting": "[4]", "value": 100, "unit": "µg/mL"}, {"measurement": "LD 90 = μg/ml 90% killing", "setting": "[5]", "value": 1.56, "unit": "µg/mL"}, {"measurement": "MBC = μg/ml 99.9% killing", "setting": "[5]", "value": 6.25, "unit": "µg/mL"}, {"measurement": "LD 90 = μg/ml 90% killing", "setting": "[6]", "value": 6.25, "unit": "µg/mL"}, {"measurement": "MBC = μg/ml 99.9% killing", "setting": "[6]", "value": 12.5, "unit": "µg/mL"}, {"measurement": "LD 90 = μg/ml 90% killing", "setting": "[7]", "value": 12.5, "unit": "µg/mL"}, {"measurement": "MBC = μg/ml 99.9% killing", "setting": "[7]", "value": 25, "unit": "µg/mL"}, {"measurement": "LD 90 = μg/ml 90% killing", "setting": "[8]", "value": 50, "unit": "µg/mL"}, {"measurement": "MBC = μg/ml 99.9% killing", "setting": "[8]", "value": 100, "unit": "µg/mL"}, {"measurement": "LD 90 = μg/ml 90% killing", "setting": "[9]", "value": 12.5, "unit": "µg/mL"}, {"measurement": "MBC = μg/ml 99.9% killing", "setting": "[9]", "value": 50, "unit": "µg/mL"}, {"measurement": "LD 90 = μg/ml 90% killing", "setting": "[10]", "value": 25, "unit": "µg/mL"}, {"measurement": "MBC = μg/ml 99.9% killing", "setting": "[10]", "value": 100, "unit": "µg/mL"}, {"measurement": "LD 90 = μg/ml 90% killing", "setting": "[11]", "value": 3.125, "unit": "µg/mL"}, {"measurement": "MBC = μg/ml 99.9% killing", "setting": "[11]", "value": 6.25, "unit": "µg/mL"}, {"measurement": "LD 90 = μg/ml 90% killing", "setting": "[12]", "value": 100, "unit": "µg/mL"}, {"measurement": "MBC = μg/ml 99.9% killing", "setting": "[12]", "value": ">100", "unit": "µg/mL"}, {"measurement": "LD 90 = μg/ml 90% killing", "setting": "[13]", "value": 100, "unit": "µg/mL"}, {"measurement": "MBC = μg/ml 99.9% killing", "setting": "[13]", "value": ">100", "unit": "µg/mL"}, {"measurement": "LD 90 = μg/ml 90% killing", "setting": "[14]", "value": 0.39, "unit": "µg/mL"}, {"measurement": "MBC = μg/ml 99.9% killing", "setting": "[14]", "value": 1.56, "unit": "µg/mL"}, {"measurement": "LD 90 = μg/ml 90% killing", "setting": "[15]", "value": 50, "unit": "µg/mL"}, {"measurement": "MBC = μg/ml 99.9% killing", "setting": "[15]", "value": 100, "unit": "µg/mL"}, {"measurement": "LD 90 = μg/ml 90% killing", "setting": "[16]", "value": 12.5, "unit": "µg/mL"}, {"measurement": "MBC = μg/ml 99.9% killing", "setting": "[16]", "value": 12.5, "unit": "µg/mL"}, {"measurement": "LD 90 = μg/ml 90% killing", "setting": "[17]", "value": 6.25, "unit": "µg/mL"}, {"measurement": "MBC = μg/ml 99.9% killing", "setting": "[17]", "value": 25, "unit": "µg/mL"}, {"measurement": "LD 90 = μg/ml 90% killing", "setting": "[18]", "value": 3.125, "unit": "µg/mL"}, {"measurement": "MBC = μg/ml 99.9% killing", "setting": "[18]", "value": 12.5, "unit": "µg/mL"}, {"measurement": "LD 90 = μg/ml 90% killing", "setting": "[19]", "value": 6.25, "unit": "µg/mL"}, {"measurement": "MBC = μg/ml 99.9% killing", "setting": "[19]", "value": 12.5, "unit": "µg/mL"}, {"measurement": "LD 90 = μg/ml 90% killing", "setting": "E. coli ATCC 35218", "value": 3.125, "unit": "µg/mL"}, {"measurement": "MBC = μg/ml 99.9% killing", "setting": "E. coli ATCC 35218", "value": 6.25, "unit": "µg/mL"}, {"measurement": "LD 90 = μg/ml 90% killing", "setting": "[20]", "value": 6.25, "unit": "µg/mL"}, {"measurement": "MBC = μg/ml 99.9% killing", "setting": "[20]", "value": 25, "unit": "µg/mL"}, {"measurement": "LD 90 = μg/ml 90% killing", "setting": "[21]", "value": 12.5, "unit": "µg/mL"}, {"measurement": "MBC = μg/ml 99.9% killing", "setting": "[21]", "value": 12.5, "unit": "µg/mL"}, {"measurement": "LD 90 = μg/ml 90% killing", "setting": "[22]", "value": 25, "unit": "µg/mL"}, {"measurement": "MBC = μg/ml 99.9% killing", "setting": "[22]", "value": 50, "unit": "µg/mL"}, {"measurement": "LD 90 = μg/ml 90% killing", "setting": "[23]", "value": 25, "unit": "µg/mL"}, {"measurement": "MBC = μg/ml 99.9% killing", "setting": "[23]", "value": 50, "unit": "µg/mL"}, {"measurement": "LD 90 = μg/ml 90% killing", "setting": "[24]", "value": 6.25, "unit": "µg/mL"}, {"measurement": "MBC = μg/ml 99.9% killing", "setting": "[24]", "value": 50, "unit": "µg/mL"}, {"measurement": "LD 90 = μg/ml 90% killing", "setting": "[25]", "value": 12.5, "unit": "µg/mL"}, {"measurement": "MBC = μg/ml 99.9% killing", "setting": "[25]", "value": 25, "unit": "µg/mL"}]}]}
